The experiment relates to SK-MEL-5 TRPM1-promoter luciferase reporter, 24 h. Kind of experiment: reducers of TRPM1 reporter luminescence, concentration series – cell-based, SK-MEL-5, cherry-picked, set 4, MITF inhibitor project, dose response (AID 493102).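 Also: actives lower the luciferase signal so the potency reflects inhibition of reporter expression.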

In general, AC50 refers to the midpoint of the concentration-response curve, whichever way the signal moves.

In the case of `O=c1c2ccccc2cnn1CCOc1ccccc1`, the half-maximal activity concentration (AC50) was 7.2 µM.

With `Cn1nnnc1Sc1ncnc2scc(-c3ccc(C#N)cc3)c12`, the concentration at half-maximal activity (AC50) was 4.98 µM.

In the case of `CC1=NNC(=O)/C1=C\c1cn(-c2ccccc2)nc1-c1ccc(F)cc1`, the half-maximal activity concentration (AC50) is 6.52 µM.

Consider `C=CCN1C(=O)/C(=C/c2cc(C)n(-c3cccnc3)c2C)C(=O)NC1=S`, for which the AC50 is 16.8 µM.

For the compound `O=[N+]([O-])c1ccc(S(=O)(=O)CC(CN2CCCCC2)N2CCCCC2)cc1` (stereo not drawn), the half-maximal activity concentration (AC50) is 4.88 µM.

In the case of `Cc1ccc(C)c(NC(=O)/C(C#N)=C/c2cn(CC(=O)NCc3ccco3)c3ccccc23)c1`, the AC50 is 6.56 µM.

`CC(/C=N/NC(=O)c1cc(-c2ccncc2)nc2ccccc12)=C\c1ccco1`: the AC50 is 2.4 µM.

Consider `COc1cccc2sc(N3CCN(C(=O)c4ccc([N+](=O)[O-])o4)CC3)nc12`, for which the AC50 was 7.03 µM.

Take `C=CC[n+]1c(-c2ccc(C)cc2)csc1Nc1ccc(NC(C)=O)cc1`: the AC50 was 1.57 µM.

With `CN1CCN(C2=C(NS(=O)(=O)c3ccccc3)C(=O)c3ccccc3C2=O)CC1`, the AC50 was 6.9 µM.

Regarding `O=C(c1ccc(S(=O)(=O)Cc2ccccc2Cl)c([N+](=O)[O-])c1)N1CCN(c2ccccn2)CC1`, the AC50 was 9.49 µM.

With `O=C(CSc1ccc(Cl)cc1)NC1CCCC1`, the AC50 is 14.2 µM.

With `O=C1C=C(N(CCO)Cc2ccccc2)c2ccccc2C1=O`, the AC50 is 4.78 µM.

On to `O=C(Cn1ncc(Cl)c(Cl)c1=O)c1ccc(Cl)cc1`, for which the AC50 was 8.81 µM.

Take `O=c1c(Cl)c(Cl)cnn1-c1ccccc1`: the half-maximal activity concentration (AC50) was 9.54 µM.

For `CN(CCC#N)C(=O)COC(=O)c1ccccc1C(=O)c1ccc(Cl)c([N+](=O)[O-])c1`, the AC50 was 10.9 µM.

For the compound `Cc1ccc2c(c1)Oc1ccc(NC(=O)CCl)cc1C(=O)N2`, the AC50 is 10.1 µM.

Consider `COC(=O)c1ccc2c(c1O)C(=O)c1ccccc1C2=O`, for which the AC50 is 1.61 µM.

For the compound `C(#Cc1ccccc1)C[N+]1(CC#Cc2cccc3ccccc23)CCCC1`, the AC50 is 6.21 µM.

In the case of `CCC(=O)N1CCN(c2ccc(NC(=O)c3ccc([N+](=O)[O-])o3)cc2)CC1`, the AC50 was 8.69 µM.

For `Cc1cc(NC(=O)c2ccc([N+](=O)[O-])o2)ccc1NC(=O)c1ccco1`, the half-maximal activity concentration (AC50) was 7.8 µM.

In the case of `COC(=O)[C@@H]1C[C@]2(OC(=O)c3ccccc3)C=CC(=O)C[C@@H]2N1C(=O)OCc1ccccc1`, the half-maximal activity concentration (AC50) is 14 µM.

`Cc1ccccc1Cn1c(=N)n(CC(=O)c2ccc([N+](=O)[O-])cc2)c2ccccc21`: the AC50 is 5.63 µM.

Take `CCOC(=O)N1CCC(NC(=O)C2CCCN(Cc3nc(-c4cccc(C)c4)oc3C)C2)CC1` (stereo not drawn): the AC50 is 34.9 µM.

Consider `O=C(c1ccc(F)cc1)C(CN1CCOCC1)c1ccccc1` (stereo not drawn), for which the half-maximal activity concentration (AC50) is 5.96 µM.

Turning to `CC[n+]1c(/C=C/N(C)c2ccccc2)sc2ccc(Cl)cc21`, the AC50 was 9.07 µM.

Take `O=C(N/N=C/c1ccccn1)c1cc([N+](=O)[O-])cc([N+](=O)[O-])c1`: the AC50 was 6.53 µM.

For the compound `O=C(CCl)Nc1cccc(-c2cnc3ccccc3n2)c1`, the concentration at half-maximal activity (AC50) was 4.02 µM.

As for `Cc1cc(C(=O)CCl)c(C)n1CCc1ccc(F)cc1`, the AC50 was 4.25 µM.

For `COc1ccc(C(=O)/C=C/C(=O)N(CC(=O)NC2CCCCC2)CC2CCCO2)c(O)c1` (stereo not drawn), the AC50 is 4.01 µM.

Consider `CC(=O)N(\C=C/C=C/C=C1\Sc2ccccc2C1=O)c1ccccc1`, for which the half-maximal activity concentration (AC50) was 8 µM.

Take `COc1cc2nc(SCC(=O)NCc3ccco3)n(Cc3ccc(Cl)cc3)c(=O)c2cc1OC`: the concentration at half-maximal activity (AC50) was 13.2 µM.

Turning to `O=C(Nc1ccc(F)cc1)c1nc(S(=O)(=O)Cc2ccccc2)ncc1Cl`, the concentration at half-maximal activity (AC50) is 9.45 µM.

Take `N=c1n(CC(=O)c2ccc(Br)cc2)c2ccccc2n1Cc1ccccc1`: the half-maximal activity concentration (AC50) was 6.41 µM.

As to `COc1cc(OC)cc(-c2oc(=O)c3cc(OC)c(OC)cc3c2C(F)(F)F)c1`, the AC50 is 12.8 µM.

Consider `O=C(Nc1ccc(Cl)c(S(=O)(=O)N2CCOCC2)c1)c1ccc(OCC2CCCO2)cc1` (stereo not drawn), for which the half-maximal activity concentration (AC50) was 3.26 µM.

Consider `O=C(O)c1cccc(NC(=O)c2cccc(NC(=O)C3CCCO3)c2)c1` (stereo not drawn), for which the concentration at half-maximal activity (AC50) is 21.2 µM.

Turning to `Cc1ccc(-n2cc(CNCCCn3ccnc3C)c(-c3ccc(F)cc3)n2)cc1`, the half-maximal activity concentration (AC50) was 7.58 µM.

For the compound `O=[N+]([O-])c1cc(Cl)cc(/C=N\Nc2ccccn2)c1O`, the AC50 is 4.49 µM.

As to `O=C(N/N=C/c1ccc([N+](=O)[O-])s1)c1ccccc1Br`, the concentration at half-maximal activity (AC50) is 3.65 µM.

On to `COc1ccc(Br)cc1C(C[N+](=O)[O-])c1c(N)n(C)c(=O)n(C)c1=O` (stereo not drawn), for which the AC50 was 8.73 µM.

As for `Cc1ccc(C(=O)N/N=C\c2ccc([N+](=O)[O-])s2)cn1`, the AC50 was 2.95 µM.

As to `Cc1ccc(C(=O)C[n+]2cc(-c3ccc(C)cc3)n3c2CCCCC3)cc1`, the half-maximal activity concentration (AC50) is 3.63 µM.

In the case of `O=C(Cn1ncc(Cl)c(Cl)c1=O)N1CCc2ccccc21`, the AC50 was 6.1 µM.

With `COc1ccccc1NS(=O)(=O)c1cc(NC(=O)c2ccc(Cl)nc2)ccc1Cl`, the half-maximal activity concentration (AC50) is 11.3 µM.

As for `CC(Oc1ccc(F)cc1)C(=O)Nc1nc(-c2ccccn2)cs1` (stereo not drawn), the half-maximal activity concentration (AC50) is 9.42 µM.

For `C=C1C(=O)C=C[C@]2(C)C[C@@H]3OC(=O)[C@](C)(O)[C@H]3C[C@@H]12`, the half-maximal activity concentration (AC50) was 10.3 µM.

With `COc1ccccc1NC(=O)c1cnc(SCC(=O)NCC2CCCO2)n(C)c1=O` (stereo not drawn), the AC50 is 8.88 µM.

As for `CC(C)(C)c1ccc(-c2noc(CCC(=O)NCc3ccco3)n2)cc1`, the concentration at half-maximal activity (AC50) was 0.122 µM.

For the compound `O=C1Nc2cc(C(=O)NCCN3CCCCCC3)ccc2S/C1=C\c1ccccc1`, the AC50 was 9.78 µM.

On to `O=C(Cn1ncc(Cl)c(Cl)c1=O)NC1CCCCC1`, for which the AC50 is 6.82 µM.

For the compound `Cc1ccc(-c2nnc(SCC(=O)Nc3ccccc3F)o2)cc1`, the AC50 was 2.3 µM.

For `CC(=O)c1ccc(Sc2nnnn2-c2ccccc2)c([N+](=O)[O-])c1`, the AC50 was 7.82 µM.

Take `COCCn1c(C)cc(C(=O)CSc2nnc(C)s2)c1C`: the AC50 was 3.04 µM.

With `Cc1ccccc1-c1nc(-c2ccccn2)no1`, the concentration at half-maximal activity (AC50) is 4.18 µM.

With `O=C(N/N=C/c1ccc([N+](=O)[O-])o1)c1sc2ccccc2c1Cl`, the half-maximal activity concentration (AC50) is 4.61 µM.

On to `COc1ccc2nc(N3CCN(C(=O)c4ccc([N+](=O)[O-])o4)CC3)sc2c1`, for which the AC50 is 5.81 µM.

For the compound `Cc1cc(C(=O)COc2cccnc2[N+](=O)[O-])c(C)n1-c1ccccc1`, the concentration at half-maximal activity (AC50) was 1.48 µM.

Turning to `O=C(/C=C/Nc1ccccc1Br)c1ccccn1`, the half-maximal activity concentration (AC50) was 0.899 µM.

For the compound `O=C(CNC(=O)c1ccccc1)N/N=C/c1ccc([N+](=O)[O-])s1`, the AC50 is 5.34 µM.

As for `Cc1nc2ccccn2c1C(=O)N/N=C/c1ccc([N+](=O)[O-])o1`, the half-maximal activity concentration (AC50) is 8.03 µM.

With `CCC(=O)Nc1cc2nn(-c3ccc(C)cc3)nc2cc1C`, the AC50 is 4.15 µM.

As for `Cc1nc(C)c(C(=O)N/N=C/c2cc(Br)ccc2O)s1`, the half-maximal activity concentration (AC50) was 3.66 µM.

With `CC(=NNC(=S)N1CCN(c2ccccn2)CC1)c1nccs1`, the concentration at half-maximal activity (AC50) is 0.681 µM.

In the case of `CC(C)=CCc1c(O)ccc2c1OC(c1ccc(O)c(O)c1)CC2=O` (stereo not drawn), the AC50 is 11.7 µM.

In the case of `CCOC(=O)c1c(NC(C)=O)sc2c(OCC(O)CNC(C)(C)C)c(Br)ccc12` (stereo not drawn), the AC50 was 7.72 µM.

For `NC(=O)c1cc([N+](=O)[O-])ccc1NCc1ccc(N)cc1`, the AC50 was 1.41 µM.

As to `O=C(CCl)Nc1cccc(Oc2ccccc2)c1`, the AC50 was 8.07 µM.

As to `c1ccc(-c2cn3nc4c(nc3n2)CCCC4)cc1`, the concentration at half-maximal activity (AC50) is 5.89 µM.

Regarding `CC1C/C(=C\c2cccnc2)C(=O)/C(=C/c2cccnc2)C1` (stereo not drawn), the AC50 is 2.66 µM.

For `O=S(=O)(c1ccc(Cl)cc1)N1CCN(Cc2ccc(O)c3ncccc23)CC1`, the concentration at half-maximal activity (AC50) was 4.37 µM.

In the case of `CCOc1ccc2nc(C)cc(Nc3cccc([N+](=O)[O-])c3)c2c1`, the AC50 was 17.8 µM.

As to `O=C(NC1CCCCC1)C(c1cccnc1)N(C(=O)CCl)c1cccc(Cl)c1` (stereo not drawn), the half-maximal activity concentration (AC50) was 4.16 µM.

On to `Cc1ccc2c(c1)COc1c3ccc(C(=O)O)cc3nn1-2`, for which the half-maximal activity concentration (AC50) is 2.23 µM.

For `O=C(N/N=C/c1ccc([N+](=O)[O-])o1)c1ccc(O)cc1`, the AC50 was 5.2 µM.

For `CC1CCCC(NCC(O)COC(c2ccc(F)cc2)c2ccc(F)cc2)C1C` (stereo not drawn), the AC50 is 10.8 µM.

Consider `CCCN1CCC(NCc2cn(C)nc2-c2ccc(Oc3ccccc3)cc2)CC1`, for which the AC50 is 8.35 µM.

Consider `Cn1cc([N+](=O)[O-])c(C(=O)Nc2cc(Oc3ccccc3)cc([N+](=O)[O-])c2)n1`, for which the AC50 is 12.4 µM.

Take `CCn1c(C)cc(C(=O)CN2C(=O)c3ccccc3S2(=O)=O)c1C`: the AC50 is 1.99 µM.

Consider `CC(C)N=C(NS(=O)(=O)c1ccccc1)C(Cl)(Cl)Cl`, for which the AC50 was 6.76 µM.

For the compound `NNC(=O)c1cc2ccccc2cc1O`, the AC50 is 24 µM.

Regarding `CCN(CC)S(=O)(=O)c1cccc(C(=O)N/N=C(\C)c2ccc(O)cc2O)c1`, the AC50 is 3.74 µM.

Turning to `Cc1cccc(NC(=O)c2ccc([N+](=O)[O-])o2)c1C`, the AC50 is 14.8 µM.

Regarding `CCSC1(SCC)N=C(N)C2(C#N)C(c3ccc(F)cc3)C12C#N` (stereo not drawn), the AC50 was 14 µM.

On to `O=C(Cc1ccc2c(c1)OCO2)NN=Cc1ccc([N+](=O)[O-])o1`, for which the AC50 was 8.55 µM.

For `O=C1NC(=O)N(Cc2ccccc2)C(=O)/C1=C/C=C/c1ccco1`, the AC50 is 4.85 µM.

On to `COc1ccc(-n2ncc3c(N4CCCCC4)ncnc32)cc1`, for which the concentration at half-maximal activity (AC50) is 1.48 µM.

On to `CCOC(=O)Cn1cc([N+](=O)[O-])nc1[N+](=O)[O-]`, for which the half-maximal activity concentration (AC50) is 29.5 µM.

As to `COc1cc(C(=O)Oc2c(CN3CCOCC3)cc(Cl)c3cccnc23)cc(OC)c1OC`, the half-maximal activity concentration (AC50) is 7.56 µM.

Turning to `Cc1cc(N2CCOCC2)ccc1/C=C\[N+](=O)[O-]`, the concentration at half-maximal activity (AC50) was 22.5 µM.

In the case of `CCOc1ccc(-n2c(O)c(/C=N/Nc3nc(C)cc(C)n3)c3ccccc3c2=O)cc1`, the concentration at half-maximal activity (AC50) was 3.48 µM.

For `COc1cccc(NC(=O)c2cc3c(=O)n4ccccc4nc3n(CC(C)C)c2=N)c1`, the AC50 was 7.02 µM.

For the compound `O=C(CCl)Nc1cccc(S(=O)(=O)NC2=NCCCCC2)c1`, the concentration at half-maximal activity (AC50) is 7.85 µM.

As to `Cc1ccccc1OCC(=O)N/N=C/c1ccc([N+](=O)[O-])o1`, the concentration at half-maximal activity (AC50) is 8.22 µM.

Take `CC(C)C(=O)N1CCN(c2ccc(NC(=O)c3ccc([N+](=O)[O-])o3)cc2Cl)CC1`: the AC50 was 7.05 µM.

`CS(=O)(=O)c1ncc(Cl)c(C(=O)Nc2ccc(N3CCOCC3)cc2)n1`: the concentration at half-maximal activity (AC50) is 22.8 µM.

As for `CC(C)CN=C(NS(=O)(=O)c1ccccc1)C(Cl)(Cl)Cl`, the AC50 is 11.1 µM.

Regarding `CC(C)(C)c1ccc(C(=O)Nc2ccc(CC(=O)O)cc2)o1`, the AC50 is 0.329 µM.

(Values after PubChem BioAssay AID493102 (Broad Institute, 2011).)
